Experimental data as given in patent publication US10004678B2, “Anti-dandruff compositions, and methods of use thereof” (LUCAS MEYER COSMETICS CANADA INC., priority 2013, dated 2018).

How the values were obtained:
Format in all cases: cell-based
Conditions in all cases: w/v concentration, 0.25% is 2.5 g (dry weight)/L
[1] = test system: M. furfur (strain 1634.86, Pasteur Institute); assay: Malassezia species growth inhibition (MIC), M. furfur
Description: (§1) Determination of the effectiveness of the solution prepared as described in Example 1 on 3 different Malassezia species was determined by measuring the lowest concentration of a molecule for which there is no visible growth of the microorganism strain (MIC). The Malassezia species used were M. furfur (strain 1634.86, Pasteur Institute), M. globose (strain IP 2387.96, Pasteur Institute), and M. restricta (strain 7877, Centralbureau voor Schimmerlcultures). Results are presented as a w/v concentration—i.e., 0.04% is 0.4 g/L; 0.078% is 0.78 g/L, 0.156% is 1.56 g/L and 0.25% is 2.5 g (dry weight)/L.

[2] = test system: M. globosa (strain IP 2387.96, Pasteur Institute); assay: Malassezia species growth inhibition (MIC), M. globosa
Description: as §1

[3] = test system: M. restricta (strain 7877, Centralbureau voor Schimmerlcultures); assay: Malassezia species growth inhibition (MIC), M. restricta
Description: as §1

SMILES | MIC (lowest concentration with no visible growth) [1] | MIC (lowest concentration with no visible growth) [2] | MIC (lowest concentration with no visible growth) [3]
Cc1cc(CC(C)CC(C)(C)C)n(O)c(=O)c1.NCCO (stereo not drawn) [Piroctone olamine] | 0.078% | 0.156% | 0.156%
S=[Se]=S [Selenium disulfide] | 0.04% | 0.04% | 0.04%
